How the values were obtained:
Type in all cases: cell-based, human
MCF-7 cells [1] = assay: ADAM15 release from MCF-7 cells into conditioned medium and levels in cell lysates (western blotting)
Method: FIG. 1 verifies that ADAM15 is released into the extracellular space. […] MCF-7 cells were incubated with 5 ng/Ml PMA in serum-free RPMI 1640 medium. P indicates pro-ADAM15 and M indicates mature ADAM15. In the results of the lower panel, data are represented as the mean±standard deviation of four experiments. *P<0.01; Student's t test. […] Cells were treated as described in the drawing. Arrows indicate pro-ADAM15 (P) and mature ADAM15 (M), respectively.
Cells were lysed in buffer containing 50 Mm Tris-HCl, pH 7.5, 5 mM EDTA, 150 mM NaCl, 1% Triton X-100, and protease inhibitor cocktail (Roche Applied Science, Indianapolis, Ind.) for 1 h at 4° C. and then centrifuged. The soluble portion of the lysate was used for western blotting, which was performed by separation of reduced or non-reduced samples on SDS-PAGE, followed by electroblotting to nitrocellulose membranes and detection of bound antibody by enhanced chemiluminescence (Amersham Biosciences, Pittsburgh, Pa.).
There are several studies showing that various membrane proteins are secreted into the extracellular space through ectodomain shedding or microvesicle release (van Kilsdonk et al., 2010). Here, we examined whether ADAM15 protein is released from human breast cancer MCF-7 cells into conditioned medium. Mature ADAM15 was detected in the conditioned medium by immunoblotting analysis with an antibody against ADAM15 extracellular domain (FIG. 1A). […] In MCF-7 cells, both the pro and mature forms of ADAM15 were detected. […] The mRNA levels of ADAM15 after PMA stimulation were also assessed. […] We further investigated whether released ADAM15 was generated by ectodomain shedding.

MCF-7 cells [2] = assay: Semi-quantitative RT-PCR analysis of ADAM15 mRNA in MCF-7 cells; conditions: 5 ng/Ml PMA for the indicated times
MCF-7 cells [3] = assay: Exosome-associated ADAM15 release from MCF-7 cells (sequential centrifugation, immunoblotting); conditions: 5 ng/Ml PMA for 24 h; 100,000×g pellet
Method: FIG. 2 verifies that released ADAM15 is associated with exosomes, and exosome-mediated ADAM15 is secreted by PMA-stimulated PKC activation. […] Conditioned medium of MCF-7 cells treated with or without 5 ng/Ml PMA for 24 h was subjected to sequential centrifugation as follows: 300×g (P1), 1,200×g (P2), 10,000×g (P3), 100,000×g (P4), and 100,000×g after filtering through a 0.22-μm pore size filter (P4′). Pellets from each stage were subjected to western blotting analysis using an anti-ADAM15 cytoplasmic domain antibody. Arrows indicate pro-ADAM15 (P) and mature ADAM15 (M), respectively. […] After ultracentrifugation at 100,000×g, the pellets were analyzed by immunoblotting with antibody to ADAM15 cytoplasmic domain. […] Isolated exosomes were analyzed by immunoblotting with ADAM15 antibody. […] The percent changes in fluorescence intensity associated with the presence of ADAM15 are shown.
(§1) Cells were incubated with or without PMA in serum-free medium or medium containing 5% FBS for 24 h. […] Protein concentration was measured by a modified Bradford assay (Bio-Rad Laboratories, Hercules, Calif.). […] The tubes were then ultracentrifuged at 100,000×g for 2.5 h in a Beckman SW 55 Ti rotor, and fractions with different densities were sequentially collected from the top of the tube and analyzed for exosomes containing ADAM15.

MCF-7 cells [4] = assay: Flow cytometric analysis of cell- and exosomal-surface expression of ADAM15; conditions: flow cytometry; 5 ng/Ml PMA for 24 h
Method: FIG. 2 verifies that released ADAM15 is associated with exosomes, and exosome-mediated ADAM15 is secreted by PMA-stimulated PKC activation. […] Conditioned medium of MCF-7 cells treated with or without 5 ng/Ml PMA for 24 h was subjected to sequential centrifugation as follows: 300×g (P1), 1,200×g (P2), 10,000×g (P3), 100,000×g (P4), and 100,000×g after filtering through a 0.22-μm pore size filter (P4′). Pellets from each stage were subjected to western blotting analysis using an anti-ADAM15 cytoplasmic domain antibody. Arrows indicate pro-ADAM15 (P) and mature ADAM15 (M), respectively. […] Isolated microvesicles from conditioned medium of MCF-7 cells treated with 5 ng/Ml PMA were subjected to sucrose gradient centrifugation. Each fraction was concentrated prior to SDS-PAGE. […] After ultracentrifugation at 100,000×g, the pellets were analyzed by immunoblotting with antibody to ADAM15 cytoplasmic domain. […] Isolated exosomes were analyzed by immunoblotting with ADAM15 antibody. […] The percent changes in fluorescence intensity associated with the presence of ADAM15 are shown.
Flow cytometric analysis of exosomes was performed as previously described with minor modifications (Thery et al., 2001). […] Flow cytometry was performed on a FACSCalibur (BD Biosciences), and data were analyzed using WinMDI software version 2.8 (The Scripps Research Institute, La Jolla, Calif.).

HEK293F cells = assay: Exosomal ADAM15 enrichment in transfected HEK293F cells (immunoblotting); conditions: 5 ng/Ml PMA for 24 h
Method: FIG. 3 verifies that ADAM15-rich exosomes have a high binding affinity for integrin αvβ3 and prevents interactions between integrin αvβ3 and vitronectin. […] FIGS. 3B and 3C show immunoblotting analysis. Prior to exosome isolation, transfected cells were stimulated with or without 5 ng/Ml PMA for 24 h, and the isolated exosomes were analyzed by immunoblotting analysis with the indicated antibodies. The exosomes were incubated with purified integrin αvβ3 (FIG. 3B) or α5β1 (FIG. 3C), followed by ultracentrifugation. The precipitates were analyzed by immunoblotting analysis. In the graphs, the immunoblotting results are represented by the relative intensity. […] Exosomes were incubated with purified integrin αvβ3 on a vitronectin-coated plate, and bound integrins were detected by anti-integrin αvβ3 antibody. […] After 2-h incubation, the number of bound cells was determined by MTT assay (OD: 540 nm). […]
as §1

THP-1 cells = assay: Release of exosomal ADAM15 from THP-1 cells; conditions: THP-1 cells incubated with PMA in serum-free medium for 24 h
Method: (§2) FIG. 9 verifies that the release of exosomal ADAM15 is further induced by LPS stimulation in differentiated THP-1 macrophages. […] THP-1 cells were incubated with PMA in serum-free medium for 24 h. Arrows indicate pro-ADAM15 and mature ADAM15, respectively. Total protein bands of exosomes were shown by Coomassie blue staining (middle penal). In the graph of the right panel, data are represented as the mean±standard deviation of three experiments. […] PMA-differentiated THP-1 cells were washed with PBS and further cultured for 2˜3 days. THP-1 macrophages were incubated with LPS in serum-free medium for 18 h. Exosomes were isolated from conditioned media. Arrows indicate pro-ADAM15 and mature ADAM15, respectively. Total protein bands of exosomes were shown by Coomassie blue staining (middle penal). The right panel represents the mean and standard deviation of three experiments. […] THP-1 cells were treated with or without PMA and/or LPS in serum-free medium for 18 h. […]
as §1

MDAH-2774 cells = assay: Effect of PKC inhibitor on secretion of exosome-associated ADAM15; conditions: PMA and indicated concentrations of calphostin C for 24 h
THP-1 macrophages = assay: Release of exosomal ADAM15 from differentiated THP-1 macrophages; conditions: THP-1 macrophages incubated with LPS in serum-free medium for 18 h
Method: as §2, §1

CCCCCCCCCCCCCC(=O)O[C@@H]1[C@@H](C)[C@@]2(O)[C@@H](C=C(CO)C[C@]3(O)C(=O)C(C)=C[C@@H]23)[C@@H]2C(C)(C)[C@]12OC(C)=O [PMA, phorbol 12-myristate 13-acetate]
ADAM15 release into conditioned medium (MCF-7 cells [1]; 5 ng/Ml PMA, serum-free RPMI 1640, antibody against ADAM15 extracellular domain): largely increased
other membrane proteins ADAM10 and E-cadherin in cells (MCF-7 cells [1]; cell lysates after PMA stimulation): unchanged
pro and mature forms of ADAM15 in cells (MCF-7 cells [1]; cell lysates, time after PMA stimulation, barely detectable after 24 hrs): decreased with time
ADAM15 mRNA levels (MCF-7 cells [2]): unchanged
amount of exosomal ADAM15 (MCF-7 cells [3]): increased
exosomal-surface ADAM15 (MCF-7 cells [4]): increase
plasma membrane-associated ADAM15 (MCF-7 cells [4]): decrease
exosomal ADAM15 in exosomes of ADAM15-transfected cells (HEK293F cells): further exosomal enrichment
release of exosomal ADAM15 (THP-1 cells): effectively increased

calphostin C
PMA-stimulated ADAM15 release (MDAH-2774 cells): successfully blocked

lipopolysaccharide [LPS]
release of exosomal ADAM15 (THP-1 macrophages): enhanced

Source: patent publication US20140212949A1, “METHOD FOR PREPARING MICROVESICULAR ADAM15” (INDUSTRY-ACADEMIC COOPERATION FOUNDATION, YONSEI UNIVERSITY, priority 2011, published 2014)
